Measured values as given in patent US5610271A, “Kappa receptor selective opioid peptides” (Torrey Pines Institute for Molecular Studies, priority 1995, dated 1997).
Square brackets hold non-standard residues; d marks the D form. Peptide text beside a SMILES is read from it. dCha = N[C@H](CC1CCCCC1)C(=O)O; dNle = CCCC[C@@H](N)C(=O)O

Target: T1, κ receptor (Cavia porcellus, UniProt P41144)
T1 construct: tissue homogenates prepared from guinea pig brains (cortex and cerebellum); tissue Harlan Bioproducts for Science (Indianapolis, Ind.); host or cells: guinea pig brain, cortex and cerebellum, crude membrane homogenate
Assay: Radioreceptor assay selective for the kappa receptor (inhibition of [3H]-U69,593 binding)
Design: species or system guinea pig
Procedure: Guinea pig brains, frozen in liquid nitrogen, were obtained from Harlan Bioproducts for Science (Indianapolis, Ind.). Frozen brains were thawed, the cerebella and cortex were removed and weighed. The combined cortex and cerebella were homogenized in 40 ml Tris-HCl buffer (50 mM, pH 7.4, 4° C.) containing 100 μM phenylmethylsulfonyl fluoride (PMSF) 5 mM MgCl2 and 1 mg/ml bovine serum albumin (BSA) and centrifuged (39000×g) (Model J2-HC; Beckman Instruments, Fullerton, Calif.) for 10 min at 4° C. The pellets were resuspended in fresh Tris-HCl buffer and incubated at 37° C. for 40 min. Following incubation, the suspensions were centrifuged as above, the resulting pellets resuspended in 100 volumes of Tris buffer and the suspensions combined. Membrane suspensions were prepared and used in the same day. Protein content of the crude homogenates ranged from 0.1-0.3 mg/ml as determined using the method described by Bradford in Anal. Biochem. 72:248-254 (1976), which is incorporated herein by reference.
Binding assays were carried out in polypropylene tubes. […] Assay tubes were incubated for 2.5 hr at 25° C. The reaction was terminated by filtration through GF-B filters (Wallac, Gaithesburg, Md.). The filters were subsequently washed with 6 ml Tris-HCl buffer at 4° C. Bound radioactivity was counted on a Beta-plate Liquid Scintillation Counter (Life Technologies, Gaithersburg, Md.) and expressed in counts per minute (cpm). Standard curves were prepared using 0.05-6300 nM naloxone (Sigma, St. Louis, Mo.). Competitive inhibition assays were performed as above using serial dilutions of the peptide mixtures. IC50 values were then calculated using the software […] (ISI, San Diego, Calif.).

T1 sequence (P41144 whole entry): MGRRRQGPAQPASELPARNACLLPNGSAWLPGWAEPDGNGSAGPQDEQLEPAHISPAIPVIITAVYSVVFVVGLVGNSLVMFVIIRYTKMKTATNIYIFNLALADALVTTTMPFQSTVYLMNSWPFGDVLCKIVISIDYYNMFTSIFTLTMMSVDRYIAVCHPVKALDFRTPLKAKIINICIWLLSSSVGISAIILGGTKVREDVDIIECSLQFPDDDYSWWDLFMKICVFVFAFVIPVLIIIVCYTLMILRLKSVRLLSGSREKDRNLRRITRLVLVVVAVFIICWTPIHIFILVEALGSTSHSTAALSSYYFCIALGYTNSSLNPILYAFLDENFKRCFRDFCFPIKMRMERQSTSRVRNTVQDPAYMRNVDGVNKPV

Row | Compound | IC50
1 | CCCC[C@@H](N)C(=O)N[C@H](Cc1ccccc1)C(=O)N[C@H](CCCC)C(=O)N[C@H](CCCNC(=N)N)C(=O)O [SEQ ID NO. 23, (D)Nle-(D)Phe-(D)Nle-(D)Arg] (H-[dNle][dF][dNle][dR]-OH) | 0.01 µM
2 | CC[C@@H](C)[C@@H](NC(=O)[C@@H](Cc1ccccc1)NC(=O)[C@H](N)Cc1ccccc1)C(=O)N[C@H](CCCNC(=N)N)C(=O)O [SEQ ID NO. 16, (D)Phe-(D)Phe-(D)Ile-(D)Arg] | 0.002 µM
3 | N[C@H](Cc1ccccc1)C(=O)N[C@H](Cc1ccccc1)C(=O)N[C@@H](Cc1c[nH]c2ccccc12)C(=O)N[C@H](CC1CCCCC1)C(=O)O [SEQ ID NO. 15, (D)Phe-(D)Phe-Trp-(D)ChAla] (H-[dF][dF]W[dCha]-OH) | 52.4 µM
4 | CCCC[C@@H](N)C(=O)N[C@H](Cc1ccccc1)C(=O)N[C@@H](C(=O)N[C@H](CC1CCCCC1)C(=O)O)[C@H](C)CC [SEQ ID NO. 27, (D)Nle-(D)Phe-(D)Ile-(D)ChAla] (H-[dNle][dF][dI][dCha]-OH) | 1.45 µM
5 | CCCC[C@@H](NC(=O)[C@@H](Cc1ccccc1)NC(=O)[C@H](N)Cc1ccccc1)C(=O)N[C@H](CC1CCCCC1)C(=O)O [SEQ ID NO. 13, (D)Phe-(D)Phe-(D)Nle-(D)ChAla] (H-[dF][dF][dNle][dCha]-OH) | 0.003 µM
6 | Ac-YRTRYRYRRR-NH2 [SEQ ID NO. 1] | 0.01 µM
7 | CCCC[C@@H](N)C(=O)N[C@H](Cc1ccccc1)C(=O)N[C@@H](Cc1c[nH]c2ccccc12)C(=O)N[C@H](CCCNC(=N)N)C(=O)O [SEQ ID NO. 24, (D)Nle-(D)Phe-Trp(D)Arg] (H-[dNle][dF]W[dR]-OH) | 11 µM
8 | Ac-YRFRYRYRRR-NH2 [SEQ ID NO. 2] | 0.018 µM
9 | N=C(N)NCCC[C@@H](NC(=O)[C@H](Cc1c[nH]c2ccccc12)NC(=O)[C@@H](Cc1ccccc1)NC(=O)[C@H](N)Cc1ccccc1)C(=O)O [SEQ ID NO. 14, (D)Phe-(D)Phe-Trp-(D)Arg] (H-[dF][dF]W[dR]-OH) | 4.95 µM
10 | CCCC[C@@H](N)C(=O)N[C@H](Cc1ccccc1)C(=O)N[C@@H](C(=O)N[C@H](CCCNC(=N)N)C(=O)O)[C@H](C)CC [SEQ ID NO. 26, (D)Nle-(D)Phe-(D)Ile-(D)Arg] (H-[dNle][dF][dI][dR]-OH) | 0.016 µM
11 | CC[C@@H](C)[C@@H](NC(=O)[C@@H](Cc1ccccc1)NC(=O)[C@H](N)Cc1ccccc1)C(=O)N[C@H](CC1CCCCC1)C(=O)O [SEQ ID NO. 17, (D)Phe-(D)Phe-(D)Ile-(D)ChAla] (H-[dF][dF][dI][dCha]-OH) | 0.169 µM
12 | CCCC[C@@H](N)C(=O)N[C@H](Cc1ccccc1)C(=O)N[C@@H](Cc1c[nH]c2ccccc12)C(=O)N[C@H](CC1CCCCC1)C(=O)O [SEQ ID NO. 25, (D)Nle-(D)Phe-Trp-(D)ChAla] (H-[dNle][dF]W[dCha]-OH) | 42.8 µM
13 | Ac-RRFRYRYRRR-NH2 [SEQ ID NO. 5] | 0.142 µM
14 | Ac-RFFRYRYRRR-NH2 [SEQ ID NO. 3] | 0.022 µM
15 | Ac-YRMRYRYRRR-NH2 [SEQ ID NO. 4] | 0.036 µM
